Data reported in patent US20080022467A1, “Disazo dyes and their preparation and use” (ILFORD Imaging Switzerland GmbH, priority 2006, published 2008).

Assays:
Type in all cases: physicochemical
[1] = Stability against degradation by ozone of printed patches; parameters: key: A: excellent; B: good; C: satisfactory; D: unsatisfactory; settings: ozone 1 ppm, 30° C., 50% relative humidity; for Resistance against Degradation by Ozone (Class) on Recording Sheet C: C: ILFORD Galerie Smooth Glossy (nanoporous); for Resistance against Degradation by Ozone (Class) on Recording Sheet D: D: ILFORD Printasia Premium Photo Glossy Paper (nanoporous); for Resistance against Degradation by Ozone (Class) on Recording Sheet F: F: EPSON Premium Glossy Photo Paper (nanoporous); for Resistance against Degradation by Ozone (Class) on Recording Sheet G: G: CANON Photo Paper Pro PR-101 (nanoporous)
Protocol: (§1) The present invention, as far as it relates to recording liquids, is illustrated by the following examples using the disazo dyes of Table 1 according to the invention and dyes representing the state of the art. For each dye, 100 g of recording liquid were prepared by heating the necessary amount of dye (2.0 g-5.0 g), 6.0 g of ethylene glycol, 3.0 g of propylene-1,2-glycol, 3.0 g of 1-methyl-2-pyrrolidone, 0.3 g of an aqueous solution (50%) of Olin® 10G (available from Arch Chemicals Inc., Norwalk, USA), 0.3 g of Surfinol® 465 (available from Air Products and Chemicals Inc., Allentown, USA) and 0.1 g of Mergal® K 10N (available from Riedel-de-Haën, Seelze, Germany) together with water at a temperature of 50° C. under stirring for approximately 1 hour. The resulting solution was cooled down to a temperature of 20° C., its value of pH was adjusted to 7.5 and the solution was passed through a Millipore® filter of 0.3 μm pore diameter. The dye quantity was adjusted in such a way that the optical density of the printed image was similar for all dyes.
(§2) Homogeneously colored square patches with an approximate density of 1.40 were then printed, using these recording liquids, with an ink jet printer Canon BJC 8500 onto the following recording sheets: • A: HP Printing Paper HPP 1122 (paper) • B: HP Premium Plus (polymer based recording sheet) • C: ILFORD Galerie Smooth Glossy (nanoporous recording sheet) • D: ILFORD Printasia Premium Photo Glossy Paper (nanoporous recording sheet) • E: ILFORD Galerie Classic Gloss Paper (polymer based recording sheet) • F: EPSON Premium Glossy Photo Paper (nanoporous recording sheet) • G: CANON Photo Paper Pro PR-101 (nanoporous recording sheet)
The optical density of the colored square patches was measured with a Spectrolino® densitometer. Afterwards, the printed samples were stored for a predetermined time (for example 48 hours) in an ozone chamber, model 903 (available from Satra/Hampden, Great Britain) at a temperature of 30° C., a relative humidity of the air of 50% and an ozone concentration of 1 ppm at a velocity of the circulating, ozone containing air of 13 mm/s. After storage, the samples were re-measured. The density differences of these two measurements, expressed as per cent of the initial density, are an indication of the amount of dye loss due to the exposure to ozone.

[2] = Light stability of printed patches (Weather-Ometer, xenon lamp); parameters: key to Light Stability (Class) on Recording Sheet A / Light Stability (Class) on Recording Sheet B / Light Stability (Class) on Recording Sheet C / Light Stability (Class) on Recording Sheet D / Light Stability (Class) on Recording Sheet E / Light Stability (Class) on Recording Sheet F / Light Stability (Class) on Recording Sheet G: A: excellent; B: good; C: satisfactory; D: unsatisfactory; settings: for Light Stability (Class) on Recording Sheet A: A: HP Printing Paper HPP 1122 (paper), 20° C., 50% relative humidity; for Light Stability (Class) on Recording Sheet A / Light Stability (Class) on Recording Sheet B / Light Stability (Class) on Recording Sheet C / Light Stability (Class) on Recording Sheet D / Light Stability (Class) on Recording Sheet E / Light Stability (Class) on Recording Sheet F / Light Stability (Class) on Recording Sheet G: 20 megalux hours; for Light Stability (Class) on Recording Sheet B: B: HP Premium Plus (polymer based); for Light Stability (Class) on Recording Sheet C: C: ILFORD Galerie Smooth Glossy (nanoporous); for Light Stability (Class) on Recording Sheet D: D: ILFORD Printasia Premium Photo Glossy Paper (nanoporous); for Light Stability (Class) on Recording Sheet E: E: ILFORD Galerie Classic Gloss Paper (polymer based); for Light Stability (Class) on Recording Sheet F: F: EPSON Premium Glossy Photo Paper (nanoporous); for Light Stability (Class) on Recording Sheet G: G: CANON Photo Paper Pro PR-101 (nanoporous); for light stability on all recording sheets (in words): summary of Table 4
Protocol: as §1, §2
The printed samples were irradiated using a Weather-Ometer® Ci35A (available from Atlas Material Testing Technology, Chicago, USA) with a 6500 W xenon lamp at a temperature of 20° C. and relative humidity of 50% until an illumination of 20 megalux hours was reached. The density loss was measured with a densitometer Spectrolino®. The percent density loss of initial density gives an indication of the light stability of the dyes on the printed recording sheet.

[3] = Dye solubility (saturated aqueous solution, spectrophotometric); settings: summary of Table 2
Protocol: Dye solubility was determined with a spectrophotometer in the UV and in the visible spectral region. The spectra of the pure disazo dyes according to the invention were measured in a buffered aqueous solution at a value of pH of 7.0. Saturated aqueous solutions of the dyes were prepared at a temperature of 50° C. These solutions were afterwards cooled down to room temperature and diluted for the measurements after a waiting time of 24 hours in such a way that the absorption at the absorption maximum was between 0.8 and 1.5. This dilution factor allows the calculation of dye solubility.

## O=S(=O)([O-])CCNc1nc(Nc2ccc(N=Nc3ccc4cc(S(=O)(=O)[O-])cc(S(=O)(=O)[O-])c4c3)cc2)nc(Nc2ccc(N=Nc3ccc4cc(S(=O)(=O)[O-])cc(S(=O)(=O)[O-])c4c3)cc2)n1.[Na+].[Na+].[Na+].[Na+].[Na+] [Dye No. 16]
[1]
  Resistance against Degradation by Ozone (Class) on Recording Sheet C: A
  Resistance against Degradation by Ozone (Class) on Recording Sheet D: A
  Resistance against Degradation by Ozone (Class) on Recording Sheet F: A
  Resistance against Degradation by Ozone (Class) on Recording Sheet G: A
[2]
  Light Stability (Class) on Recording Sheet A: B
  Light Stability (Class) on Recording Sheet B: A
  Light Stability (Class) on Recording Sheet C: B
  Light Stability (Class) on Recording Sheet D: B
  Light Stability (Class) on Recording Sheet E: B
  Light Stability (Class) on Recording Sheet F: B
  Light Stability (Class) on Recording Sheet G: B

## CN(CCS(=O)(=O)[O-])c1nc(Nc2ccc(N=Nc3ccc4cc(S(=O)(=O)[O-])cc(S(=O)(=O)[O-])c4c3)cc2)nc(Nc2ccc(N=Nc3ccc4cc(S(=O)(=O)[O-])cc(S(=O)(=O)[O-])c4c3)cc2)n1.[Na+].[Na+].[Na+].[Na+].[Na+] [Dye No. 17]
[1]
  Resistance against Degradation by Ozone (Class) on Recording Sheet C: B
  Resistance against Degradation by Ozone (Class) on Recording Sheet D: A
  Resistance against Degradation by Ozone (Class) on Recording Sheet F: A
  Resistance against Degradation by Ozone (Class) on Recording Sheet G: A
[2]
  Light Stability (Class) on Recording Sheet A: B
  Light Stability (Class) on Recording Sheet B: A
  Light Stability (Class) on Recording Sheet C: A
  Light Stability (Class) on Recording Sheet D: B
  Light Stability (Class) on Recording Sheet E: B
  Light Stability (Class) on Recording Sheet F: B
  Light Stability (Class) on Recording Sheet G: B

## O=C([O-])c1cc(Nc2nc(Nc3ccc(N=Nc4cc(S(=O)(=O)[O-])c5cccc(S(=O)(=O)[O-])c5c4)cc3)nc(Nc3ccc(N=Nc4cc(S(=O)(=O)[O-])c5cccc(S(=O)(=O)[O-])c5c4)cc3)n2)cc(C(=O)[O-])c1.[Na+].[Na+].[Na+].[Na+].[Na+].[Na+] [Dye No. 18]
[1]
  Resistance against Degradation by Ozone (Class) on Recording Sheet C: A
  Resistance against Degradation by Ozone (Class) on Recording Sheet D: A
  Resistance against Degradation by Ozone (Class) on Recording Sheet F: A
  Resistance against Degradation by Ozone (Class) on Recording Sheet G: A
[2]
  Light Stability (Class) on Recording Sheet A: B
  Light Stability (Class) on Recording Sheet B: A
  Light Stability (Class) on Recording Sheet C: B
  Light Stability (Class) on Recording Sheet D: B
  Light Stability (Class) on Recording Sheet E: B
  Light Stability (Class) on Recording Sheet F: B
  Light Stability (Class) on Recording Sheet G: B

## O=S(=O)([O-])c1cc(/N=N/c2ccc(Nc3nc(NCCO)nc(Nc4ccc(/N=N/c5cc(S(=O)(=O)[O-])c6cccc(S(=O)(=O)[O-])c6c5)cc4)n3)cc2)cc2c(S(=O)(=O)[O-])cccc12.[Na+].[Na+].[Na+].[Na+] [Dye No. I, reference compound]
[1]
  Resistance against Degradation by Ozone (Class) on Recording Sheet C: A
  Resistance against Degradation by Ozone (Class) on Recording Sheet D: B
  Resistance against Degradation by Ozone (Class) on Recording Sheet F: A
  Resistance against Degradation by Ozone (Class) on Recording Sheet G: A
[2]
  Light Stability (Class) on Recording Sheet A: A
  Light Stability (Class) on Recording Sheet B: A
  Light Stability (Class) on Recording Sheet C: B
  Light Stability (Class) on Recording Sheet D: B
  Light Stability (Class) on Recording Sheet E: B
  Light Stability (Class) on Recording Sheet F: A
  Light Stability (Class) on Recording Sheet G: B
  light stability on all recording sheets (in words): excellent or good light stability

## Cc1cc(Nc2nc(NCCO)nc(Nc3ccc(/N=N/c4cc(S(=O)(=O)[O-])c5cccc(S(=O)(=O)[O-])c5c4)c(C)c3)n2)ccc1/N=N/c1cc(S(=O)(=O)[O-])c2cccc(S(=O)(=O)[O-])c2c1.[Na+].[Na+].[Na+].[Na+] [Dye No. II, Direct Yellow 86, reference compound]
[1]
  Resistance against Degradation by Ozone (Class) on Recording Sheet C: A
  Resistance against Degradation by Ozone (Class) on Recording Sheet D: B
  Resistance against Degradation by Ozone (Class) on Recording Sheet F: A
  Resistance against Degradation by Ozone (Class) on Recording Sheet G: A
[2]
  Light Stability (Class) on Recording Sheet A: B
  Light Stability (Class) on Recording Sheet B: D
  Light Stability (Class) on Recording Sheet C: B
  Light Stability (Class) on Recording Sheet D: B
  Light Stability (Class) on Recording Sheet E: B
  Light Stability (Class) on Recording Sheet F: A
  Light Stability (Class) on Recording Sheet G: A
  light stability on all recording sheets (in words): satisfactory or even unsatisfactory light stability

## O=S(=O)([O-])c1cc(/N=N/c2ccc(Nc3nc(NCCCN4CCOCC4)nc(Nc4ccc(/N=N/c5cc(S(=O)(=O)[O-])c6cccc(S(=O)(=O)[O-])c6c5)cc4)n3)cc2)cc2c(S(=O)(=O)[O-])cccc12.[Na+].[Na+].[Na+].[Na+] [Dye No. IV, reference compound]
[1]
  Resistance against Degradation by Ozone (Class) on Recording Sheet C: A
  Resistance against Degradation by Ozone (Class) on Recording Sheet D: B
  Resistance against Degradation by Ozone (Class) on Recording Sheet F: A
  Resistance against Degradation by Ozone (Class) on Recording Sheet G: A
[2]
  Light Stability (Class) on Recording Sheet A: C
  Light Stability (Class) on Recording Sheet B: A
  Light Stability (Class) on Recording Sheet C: D
  Light Stability (Class) on Recording Sheet D: C
  Light Stability (Class) on Recording Sheet E: C
  Light Stability (Class) on Recording Sheet F: B
  Light Stability (Class) on Recording Sheet G: B
  light stability on all recording sheets (in words): satisfactory or even unsatisfactory light stability
[3]
  solubility (in words): equally high water solubility

## Direct Yellow 132 [Dye No. III, reference compound]
[1]
  Resistance against Degradation by Ozone (Class) on Recording Sheet C: D
  Resistance against Degradation by Ozone (Class) on Recording Sheet D: B
  Resistance against Degradation by Ozone (Class) on Recording Sheet F: C
  Resistance against Degradation by Ozone (Class) on Recording Sheet G: C
[2]
  Light Stability (Class) on Recording Sheet A: C
  Light Stability (Class) on Recording Sheet B: A
  Light Stability (Class) on Recording Sheet C: B
  Light Stability (Class) on Recording Sheet D: B
  Light Stability (Class) on Recording Sheet E: B
  Light Stability (Class) on Recording Sheet F: B
  Light Stability (Class) on Recording Sheet G: B
  light stability on all recording sheets (in words): satisfactory or even unsatisfactory light stability
